Read-outs that look alike come from different tables or passages of the source. No end group written: not given here.
Key:
Assay type in all cases: cell-based
Vibrio scophthalmi [1] = tested on: Vibrio scophthalmi
Experimental: (§1) A range of bacterial species with the potential to be transferred to developing fish larvae as pathogens or probiotics were selected for use in the study (Table 2). Bacterial isolates were stored at −80 °C and thawed, and 25 µL of the isolates was spread onto marine salt agar (MSA) media. All isolates were incubated at 25 °C for 18 h to reach mid-log growth phase. All isolates were sub-cultured and identified using mass spectrometry (MALDI-TOF) using the BioTyper and MBT 8468 library (Bruker Pty Ltd). The isolate Tenacibaculum discolor was plated on Anacker and Oradal’s marine (AOM) media, incubated for 48 h and identified using the aforementioned method. Bacterial isolates were suspended in sterile saline (0.75% NaCl w/v) to 0.5 McFarland standard. […] The bacterial isolates T. discolor and Pseudoalteromonas sp. require marine salts to grow and were not added to MHB (0‰). The isolate T. discolor requires low nutrients to grow, therefore, a separate MHB (25‰) was prepared at a diluted ratio of 1 part MHB and 7 parts artificial seawater (25‰).
(§2) The protocol was followed to determine the minimum inhibitory concentration (MIC) of the selected peptides. Two MIC assays were performed, firstly to determine whether each peptide precipitated in MHB and thereby required acetic acid adjustments (supplementary materials) and secondly, to determine the antimicrobial activity of each peptide in artificial seawater (25‰). Peptide stock solutions (1.3 mg mL^−1) were made by diluting the peptides in sterile deionised water. MHB was made with deionised water to reach a concentration of approaching 0‰ and artificial sea salts (Sigma-Aldrich® S9883) to reach a salinity of 25‰.
(§3) Once the acetic acid requirement for each peptide was determined (Table 3), the antimicrobial activity of each peptide was tested at a salinity of 0‰ and 25‰ for all bacterial isolates. A stock solution for peptides that required acetic acid was prepared by a 1:2 dilution in acetic acid (0.02% acetic acid w/v, containing 0.4% BSA) solution. In a 96-well polypropylene microtitre plates (Costar® 3879), 100 µL of this peptide stock was added to the first well for each bacterial isolate tested and serially diluted twofold with acetic acid (0.01% acetic acid w/v, containing 0.2% BSA). From each well, 10 µL of each peptide concentration was added to the corresponding wells of a new 96-well microtitre plate. From each of the bacterial suspensions (0‰), 90 µL was added to each well. […] Twofold serial dilutions were made with MHB (0‰). From each of the bacterial suspensions (0‰), 50 µL was added to each well. The same method was followed for testing peptides in MHB at 25‰. All peptide concentrations ranged from 0.125 to 65 µg mL^−1, and the bacterial suspension in each well was approximately 5 × 10^5 CFU mL^−1. The different salinities were used to compare any differences in antimicrobial activity in 0‰ and 25‰ water. […] Each bacterium was trialled in duplicate.

Vibrio harveyi [2] = tested on: Vibrio harveyi
Experimental: as §1, §2, §3

Tenacibaculum discolor = tested on: Tenacibaculum discolor
Experimental: as §1, §2, §3

Vibrio rotiferianus [3] = tested on: Vibrio rotiferianus
Experimental: as §1, §2, §3

[4] = tested on: Vibrio harveyi (ATCC 35084)
Experimental: as §1, §2, §3

Shewanella sp. [5] = tested on: Shewanella sp.
Experimental: as §1, §2, §3

Vibrio alginolyticus [6] = tested on: Vibrio alginolyticus
Experimental: as §1, §2, §3

[7] = tested on: Escherichia coli (ATCC 25922)
Experimental: as §1, §2, §3

Pseudoalteromonas sp. = tested on: Pseudoalteromonas sp.
Experimental: as §1, §2, §3

Vibrio scophthalmi [8] = tested on: Vibrio scophthalmi; remark: listed apart in the source
Experimental: as §1, §2
(§4) A broth microdilution protocol was followed to test whether the AMPs precipitated in MHB. The isolates T. discolor and Pseudoalteromonas were excluded from this assay because they required marine salts for growth. The peptides HHC10 and HHC36 previously required acetic acid adjustments according to [63] and were not trialled in this assay. To test if peptides required acetic acid, each peptide was diluted 1:2 in acetic acid (0.02% acetic acid w/v, containing 0.4% BSA) solution. In a 96-well polypropylene microtitre plates (Costar® 3879), 100 µL of this peptide stock was added to the first well for each bacterial isolate tested and serially diluted 2-fold with acetic acid (0.01% acetic acid w/v, containing 0.2% BSA). From each well, 10 µL of each peptide concentration was added to the corresponding wells of a new 96-well microtitre plate. From each of the bacterial suspensions in MHB (0‰), 90 µL was added to each well. […] From each of the bacterial suspensions in MHB (0‰), 50 µL was added to each well. All peptide concentrations ranged from 0.125 - 65µg mL^-1 and the bacterial suspension in each well was approximately 5 × 10^5 CFU mL^-1. Antimicrobial peptides that have an MIC value two or more dilutions higher in the assay with no acetic acid, compared to the assay with acetic acid, require acetic acid adjustments. The 96-well plates were incubated at 25 °C and read at 24 and 48 hours. The MIC was visually determined using a Sensititre™ Vizion™ Digital MIC Viewing System (Thermo Scientific™), and the lowest AMP concentration that had no bacterial growth was recorded as the MIC after 48 hours. Each bacterium was trialled in duplicate.

Vibrio harveyi [9] = tested on: Vibrio harveyi; remark: listed apart in the source
Experimental: as §1, §2, §4

Vibrio rotiferianus [10] = tested on: Vibrio rotiferianus; remark: listed apart in the source
Experimental: as §1, §2, §4

[11] = tested on: Vibrio harveyi (ATCC 35084); remark: listed apart in the source
Experimental: as §1, §2, §4

Shewanella sp. [12] = tested on: Shewanella sp.; remark: listed apart in the source
Experimental: as §1, §2, §4

Vibrio alginolyticus [13] = tested on: Vibrio alginolyticus; remark: listed apart in the source
Experimental: as §1, §2, §4

[14] = tested on: Escherichia coli (ATCC 25922); remark: listed apart in the source
Experimental: as §1, §2, §4

[15] = MHB 0‰, acetic acid only for peptides requiring it, 25 °C, MIC after 48 h, ca. 5 × 10^5 CFU mL^-1, duplicate
[16] = MHB with artificial sea salts 25‰, acetic acid only for peptides requiring it, 25 °C, MIC after 48 h, ca. 5 × 10^5 CFU mL^-1, duplicate
[17] = no acetic acid (peptide diluted 1:10 in MHB), MHB 0‰, 25 °C, MIC after 48 h, ca. 5 × 10^5 CFU mL^-1, duplicate
[18] = with acetic acid (0.01% acetic acid w/v, 0.2% BSA diluent), MHB 0‰, 25 °C, MIC after 48 h, ca. 5 × 10^5 CFU mL^-1, duplicate

Substance: VLQIKKVLRLLL-NH2 [Peptide 3011]
- MIC V. scophthalmi, salinity 0‰ (Vibrio scophthalmi [1]; [15]): 1.02 µg/mL
- MIC V. scophthalmi, salinity 25‰ (Vibrio scophthalmi [1]; [16]): > 65 µg/mL
- MIC V. harveyi, salinity 0‰ (Vibrio harveyi [2]; [15]): 8.13 µg/mL
- MIC V. harveyi, salinity 25‰ (Vibrio harveyi [2]; [16]): > 65 µg/mL
- MIC T. discolor, salinity 25‰ (Tenacibaculum discolor; MHB (25‰) diluted 1 part MHB and 7 parts artificial seawater (25‰), 25 °C, MIC after 48 h, ca. 5 × 10^5 CFU mL^-1, duplicate): > 65 µg/mL
- MIC V. rotiferianus, salinity 0‰ (Vibrio rotiferianus [3]; [15]): 4.06 µg/mL
- MIC V. rotiferianus, salinity 25‰ (Vibrio rotiferianus [3]; [16]): > 65 µg/mL
- MIC V. harveyi ATCC 35084, salinity 0‰ [4, 15]: 8.13 µg/mL
- MIC V. harveyi ATCC 35084, salinity 25‰ [4, 16]: > 65 µg/mL
- MIC Shewanella sp., salinity 0‰ (Shewanella sp. [5]; [15]): 8.13 µg/mL
- MIC Shewanella sp., salinity 25‰ (Shewanella sp. [5]; [16]): > 65 µg/mL
- MIC V. alginolyticus, salinity 0‰ (Vibrio alginolyticus [6]; [15]): 4.06 µg/mL
- MIC V. alginolyticus, salinity 25‰ (Vibrio alginolyticus [6]; [16]): > 65 µg/mL
- MIC E. coli ATCC 25922, salinity 0‰ [7, 15]: 16.25 µg/mL
- MIC E. coli ATCC 25922, salinity 25‰ [7, 16]: > 65 µg/mL
- MIC Pseudoalteromonas sp., salinity 25‰ (Pseudoalteromonas sp.; MHB with artificial sea salts 25‰, 25 °C, MIC after 48 h, ca. 5 × 10^5 CFU mL^-1, duplicate): > 65 µg/mL
- MIC V. scophthalmi, No acetic (Vibrio scophthalmi [8]; [17]): 2.03 µg/mL
- MIC V. scophthalmi, Acetic (Vibrio scophthalmi [8]; [18]): 4.06 µg/mL
- MIC V. harveyi, No acetic (Vibrio harveyi [9]; [17]): 32.5 µg/mL
- MIC V. harveyi, Acetic (Vibrio harveyi [9]; [18]): 16.25 µg/mL
- MIC V. rotiferianus, No acetic (Vibrio rotiferianus [10]; [17]): 4.06 µg/mL
- MIC V. rotiferianus, Acetic (Vibrio rotiferianus [10]; [18]): 4.06 µg/mL
- MIC V. harveyi ATCC 35084, No acetic [11, 17]: 8.13 µg/mL
- MIC V. harveyi ATCC 35084, Acetic [11, 18]: 16.25 µg/mL
- MIC Shewanella sp., No acetic (Shewanella sp. [12]; [17]): 16.25 µg/mL
- MIC Shewanella sp., Acetic (Shewanella sp. [12]; [18]): 16.25 µg/mL
- MIC V. alginolyticus, No acetic (Vibrio alginolyticus [13]; [17]): 4.06 µg/mL
- MIC V. alginolyticus, Acetic (Vibrio alginolyticus [13]; [18]): 4.06 µg/mL
- MIC E. coli ATCC 25922, No acetic [14, 17]: 8.13 µg/mL
- MIC E. coli ATCC 25922, Acetic [14, 18]: 16.25 µg/mL

Substance: WVGVIIKWGLKL-NH2 [Peptide 3018]
- MIC V. scophthalmi, salinity 0‰ (Vibrio scophthalmi [1]; 48 h): 1.02 µg/mL
- MIC V. scophthalmi, salinity 25‰ (Vibrio scophthalmi [1]; 48 h): > 65 µg/mL
- MIC V. harveyi, salinity 0‰ (Vibrio harveyi [2]; 48 h): 16.25 µg/mL
- MIC V. harveyi, salinity 25‰ (Vibrio harveyi [2]; 48 h): > 65 µg/mL
- MIC T. discolor, salinity 25‰ (Tenacibaculum discolor; 48 h): > 65 µg/mL
- MIC V. rotiferianus, salinity 0‰ (Vibrio rotiferianus [3]; 48 h): 8.13 µg/mL
- MIC V. rotiferianus, salinity 25‰ (Vibrio rotiferianus [3]; 48 h): > 65 µg/mL
- MIC V. harveyi ATCC 35084, salinity 0‰ ([4]; ATCC 35084, 48 h): 32.5 µg/mL
- MIC V. harveyi ATCC 35084, salinity 25‰ ([4]; ATCC 35084, 48 h): > 65 µg/mL
- MIC Shewanella sp., salinity 0‰ (Shewanella sp. [5]; 48 h): 16.25 µg/mL
- MIC Shewanella sp., salinity 25‰ (Shewanella sp. [5]; 48 h): > 65 µg/mL
- MIC V. alginolyticus, salinity 0‰ (Vibrio alginolyticus [6]; 48 h): 2.03 µg/mL
- MIC V. alginolyticus, salinity 25‰ (Vibrio alginolyticus [6]; 48 h): > 65 µg/mL
- MIC E. coli ATCC 25922, salinity 0‰ ([7]; ATCC 25922, 48 h): 65 µg/mL
- MIC E. coli ATCC 25922, salinity 25‰ ([7]; ATCC 25922, 48 h): > 65 µg/mL
- MIC Pseudoalteromonas sp., salinity 25‰ (Pseudoalteromonas sp.; 48 h): > 65 µg/mL
- MIC V. scophthalmi, Acetic (Vibrio scophthalmi [8]; 48 h): 0.25 µg/mL
- MIC V. scophthalmi, No acetic (Vibrio scophthalmi [8]; 48 h): 2.03 µg/mL
- MIC V. harveyi, Acetic (Vibrio harveyi [9]; 48 h): 16.25 µg/mL
- MIC V. harveyi, No acetic (Vibrio harveyi [9]; 48 h): 16.25 µg/mL
- MIC V. rotiferianus, Acetic (Vibrio rotiferianus [10]; 48 h): 8.13 µg/mL
- MIC V. rotiferianus, No acetic (Vibrio rotiferianus [10]; 48 h): 4.06 µg/mL
- MIC V. harveyi ATCC 35084, Acetic ([11]; ATCC 35084, 48 h): 16.25 µg/mL
- MIC V. harveyi ATCC 35084, No acetic ([11]; ATCC 35084, 48 h): 8.13 µg/mL
- MIC Shewanella sp., Acetic (Shewanella sp. [12]; 48 h): 16.25 µg/mL
- MIC Shewanella sp., No acetic (Shewanella sp. [12]; 48 h): 8.13 µg/mL
- MIC V. alginolyticus, Acetic (Vibrio alginolyticus [13]; 48 h): 8.13 µg/mL
- MIC V. alginolyticus, No acetic (Vibrio alginolyticus [13]; 48 h): 4.06 µg/mL
- MIC E. coli ATCC 25922, Acetic ([14]; ATCC 25922, 48 h): > 65 µg/mL
- MIC E. coli ATCC 25922, No acetic ([14]; ATCC 25922, 48 h): 16.25 µg/mL
